Laboratory results as given in patent publication US12338484B2, “FRET biosensor for detecting and reporting NAD+/NADH ratio changes” (Sartorius BioAnalytical Instruments, Inc., priority 2022, dated 2025).

Assays:
Format in all cases: biochemical
Parameters in all cases: key: Good response: Constructs with very clear and robust spectra separation; Poor response: those with noticeable but small spectra separation; No response: those having no spectra separation
[1] = biological target: T1, Thermus aquaticus T-Rex FRET fusion, initial construct #1, mKOk-Rex(78-189)-cpmEGFP(145/146)-Rex(190-211)-Rex(78-211), SEQ ID NO: 161 (Thermus aquaticus, UniProt Q9X2V5, INS189[…]); test: FRET response (emission spectra) of purified initial construct #1 in absence or presence of 40 uM NADH
T1 construct: His-tag purified from E. coli (pET28c)
Experimental: (§1) 16 initial FRET constructs (See Table 3) were constructed using expression vector pET28c with a T7 promoter and lac operator and expressed in E. coli. Cells were collected and lysed using a commercially-available lysis buffer. Proteins of interest were isolated from the lysates using Ni-NTA magnetic beads. Eluted proteins were subjected to buffer exchange and final protein concentrating. To test performance of the initial FRET constructs, their emission spectra was recorded on a plate reader in absence or presence of 40 uM NADH. Resulting emission spectra with or without the ligand were normalized and overlaid for each construct. Constructs with very clear and robust spectra separation were labeled as having “good response”, those with noticeable but small spectra separation were labeled as having “poor response”, and finally those having no spectra separation were labeled as having “no response”.

[2] = biological target: T2, Thermus aquaticus T-Rex FRET fusion, initial construct #3, mKOk-Rex(78-211)-Rex(78-189)-cpmEGFP(145/146)-Rex(190-211), SEQ ID NO: 163 (Thermus aquaticus, UniProt Q9X2V5, INS189[…]); test: FRET response (emission spectra) of purified initial construct #3 in absence or presence of 40 uM NADH
T2 construct: His-tag purified from E. coli
Experimental: as §1

[3] = biological target: Thermus aquaticus T-Rex FRET fusion, initial construct #15, mEGFP-Rex(A)-mKOk-Rex(B), SEQ ID NO: 175 (Thermus aquaticus, UniProt Q9X2V5, E116G/F189I/K117M/K204T/K47E/R46D/R58D/S30A/Y98W); test: FRET response (emission spectra) of purified initial construct #15 in absence or presence of 40 uM NADH
Experimental: as §1

Measured: FRET response to NADH

NC(=O)C1=CN([C@@H]2O[C@H](COP(=O)(O)OP(=O)(O)OC[C@H]3O[C@@H](n4cnc5c(N)ncnc54)[C@H](O)[C@@H]3O)[C@@H](O)[C@H]2O)C=CC1 [NADH]
No response: all assays above
